Measured values as given in patent US11203754B2, “Microrna compositions and methods of making and using same” (Advanced ReGen Medical Technologies, LLC, priority 2016, dated 2021).

Legend:
[1] = system: SNORD95; assay: Exosomal RNA (ExoRNA) level, SNORD95, with inhibitors; assay type: cell-based; settings: BCI-137 10 μM, GW4869 3.5 μM; NONE = 1
Protocol: (§1) Exosomes were collected and quantified to determine the effects of inhibitors on exosome production while RNA extracted from the exosomes were analyzed to determine exosome depletion and levels of RNA depletion.
(§2) SNORD68 and SNORD95 are small nucleolar RNAs.

[2] = system: CD34+ cells; assay: Effect of inhibitor on CD34+ differentiation potential and restoration; assay type: cell-based
Excerpt: as §2

[3] = system: adult stem cells in transwell culture; assay: Exosome production in transwell cultures with exosome inhibitors; assay type: cell-based; settings: BCI-137 10 μM, GW4869 3.5 μM, added Day 0 and Day 3, NONE = 710
Protocol: A series of transwell experiments were carried out by placing adult stem cells of a donor subject (i.e., donor cells) in the upper chamber of a transwell assembly while the adult stem cells of a receiver subject (i.e. receiver cells) were placed in the lower chamber. Referring to FIG. 2, the transwell culture 400 comprised an insert 410 having a permeable surface that allows the donor cells to uptake and secrete molecules on the basal and/or apical surfaces of the transwell. The transwell insert 410 comprised a permeable membrane with a 0.4 μm pore size. At least a portion of the donor cell sample 420 was applied to the transwell insert 410 while the receiver cell sample 430 was positioned within the lower compartment of the transwell culture with an appropriate amount of culture media.
as §1

[4] = system: CD34+ cells; assay: Effect of inhibitors on cell function (total cell vitality, CD34+ cell vitality, CD34+ cell expansion); settings: inhibitor added to transwell culture
Protocol: (§3) To the transwell cultures was added either a pharmacological inhibitor of exosome biogenesis GW4869 (3.5 μM) or an inhibitor of exosome packaging BCI-137 (10 μM). […] Inhibitors were added to the transwell cultures upon initial seeding (Day 0) and again at Day 3.
(§4) Further analysis of the effect of the inhibitors on cell function was assessed by determining the total cell vitality, the CD34+ cell vitality and the extent of CD34+ cell expansion.

[5] = system: SNORD68; assay: Exosomal RNA (ExoRNA) level, SNORD68, with inhibitors; assay type: cell-based; settings: BCI-137 10 μM, GW4869 3.5 μM; NONE = 1
Protocol: as §1, §2

[6] = system: miRNAs in exosomes; assay: miRNA depletion in exosomes harvested from the heterochronic culture; assay type: cell-based
Protocol: as §1, §2

[7] = system: CD34+ cells
Protocol: as §3, §4

[8] = system: CD34+ stem cell; assay: microRNA nucleofection into mature blood cells: CD34+ clonogenicity (CFU-GM); assay type: cell-based, human; settings: Table 8 Experiment #1; total 60 nM into mature blood cells; siRNA vehicle = 20, No Treatment = 10
Protocol: Candidate microRNAs involved in facilitating adoptive cellular restoration therapy were miR-146a, miR-103a, miR-106a and miR-19a. Combinations of candidate microRNAs were nucleofected at a total concentration of 60 nM into mature blood cells using the CD34+ cell human nucleofector kit (Lonza) and the human CD34+ cell protocol, and effect on CD34+ stem cell vitality and clonogenicity were evaluated compared to siRNA vehicle control. Further, the microRNA combination of miR-103a, miR-106b and miR-19a were nucleofected at a total concentration of 90 nM into mature blood cells using the P3 Primary Cell 4D-Nucleofector X Kit (Lonza) and the human T cell high efficiency protocol, and effect on T cell activation and cell-mediated cytotoxicity were evaluated compared to siRNA vehicle control. Additional candidate microRNAs involved in facilitating adoptive cellular restoration therapy identified were miR-1303, miR-7851-3p, miR-223, miR-4497, miR-619-5p and miR-1273f. Combinations of these additional candidate microRNAs were nucleofected at a total concentration of 60 nM into mature blood cells using the CD34+ cell human nucleofector kit (Lonza) and the human CD34+ cell protocol, and effect on CD34+ clonogenicity was evaluated compared to siRNA vehicle control.

CC(NS(=O)(=O)c1ccc2[nH]c(=O)c(=O)[nH]c2c1)C(=O)O (stereo not shown) [BCI-137]
Fold Change in ExoRNA SNORD95 [1]: 0.33 Fold Change
restorative effects of adoptive cell restoration ([2]; inhibition by BCI-137): blocked the restorative effects
differentiation in CD34+ heterochronic cells ([2]; inhibition with BCI-137): decreased
differentiation potential in the CD34+ mature cells ([2]; inhibition with BCI-137): increased
Exosome Production (# exosomes × 10^8) [3]: 604 # exosomes × 10^8
effect on the juvenile or mature cell health [4]: no effect
Fold Change in ExoRNA SNORD68 [5]: 0.24 Fold Change
depletion of miRNAs in exosomes [6]: effectively depleted miRNAs

O=C(/C=C/c1ccc(/C=C/C(=O)Nc2ccc(C3=NCCN3)cc2)cc1)Nc1ccc(C2=NCCN2)cc1 [GW4869]
Fold Change in ExoRNA SNORD95 [1]: 0.67 Fold Change
Exosome Production (# exosomes × 10^8) [3]: 558 # exosomes × 10^8
toxicity to CD34+ cells [7]: appeared toxic
Fold Change in ExoRNA SNORD68 [5]: 0.43 Fold Change
depletion of miRNAs in exosomes [6]: effectively depleted miRNAs

miR-223: isolated microRNA miR-223-5p (SEQ ID NO:5) (CGUGUAUUUGACAAGCUGAGUU; listed as RNA, chemistry not given here; listed as Homo sapiens)
CD34+ Differentiation (# CFU-GM) [8]: 10 # CFU-GM

miR-619-5p: isolated microRNA miR-619-5p (SEQ ID NO:8) (GCUGGGAUUACAGGCAUGAGCC; listed as RNA, chemistry not given here; listed as Homo sapiens)
CD34+ Differentiation (# CFU-GM) [8]: 46 # CFU-GM

miR-1273f: isolated microRNA miR-1273f (SEQ ID NO:9) (GGAGAUGGAGGUUGCAGUG; listed as RNA, chemistry not given here; listed as Homo sapiens)
CD34+ Differentiation (# CFU-GM) [8]: 9 # CFU-GM

miR-1303: isolated microRNA miR-1303 (SEQ ID NO:7) (UUUAGAGACGGGGUCUUGCUCU; listed as RNA, chemistry not given here; listed as Homo sapiens)
CD34+ Differentiation (# CFU-GM) [8]: 32 # CFU-GM

miR-4497: isolated microRNA miR-4497 (SEQ ID NO:6) (CUCCGGGACGGCUGGGC; listed as RNA, chemistry not given here; listed as Homo sapiens)
CD34+ Differentiation (# CFU-GM) [8]: 20 # CFU-GM

miR-7851-3p: isolated microRNA miR-7851-3p (SEQ ID NO:10) (UACCUGGGAGACUGAGGUUGGA; listed as RNA, chemistry not given here; listed as Homo sapiens)
CD34+ Differentiation (# CFU-GM) [8]: 14 # CFU-GM
